This passage reports IC50 results from EP1094066A2, “Condensed heterocyclic glutamic acid derivatives as antiproliferative agents” (AGOURON PHARMACEUTICALS, INC., priority 1993, dated 1994).

This test relates to L1210 murine leukemia (ATCC CCL 219) cell line. The experiment in a line: Cellular growth inhibition, MTT-tetrazolium reduction assay. It is filed as cell-based. The settings on record: Mus musculus, 72 h; L1210 cells, 3 days of continuous exposure. On the procedure:
Cellular growth in the presence of the compounds according to the present invention was assessed using the L1210 murine leukemia (ATCC CCL 219) cell line. The cell line was maintained in RPMI 1640 medium containing 5% heat-inactivated fetal bovine serum without antibiotics.
Water insoluble derivatives were dissolved in DMSO and diluted to a final concentration of 0.5% solvent in cell cultures.
(In general: Tetrazolium dyes change colour on reduction, which living cells bring about.)

One may read the IC50 as the concentration that gives 50% inhibition. A higher IC50 goes with weaker potency in that assay.

Compound `Nc1nc2c(c(=O)[nH]1)SC(CCc1ccc(C(=O)N[C@@H](CCC(=O)O)C(=O)O)cc1)CN2` (stereo partly shown) [(14), 2-[4-[2-(2-Amino-4-oxo-4,6,7,8-tetrahydro-3H-pyrimido[5,4-b][1,4]thiazin-6-yl)-ethyl]benzoylamino)pentanedioic acid] returned an IC50 of 50 nM.
